The values below come from US20190194148A1, “TETRAZOLE-CONTAINING 1,2-CYCLOPROPANE-CARBOXAMIDES” (Bayer Pharma Aktiengesellschaft, priority 2017, published 2019).

pIC50: −log10 of the molar value. Where two headings read alike, the source gives them in different places.

This assay deals with T1, human B1 receptor (Homo sapiens, UniProt P46663).
T1 construct: host or cells: CHO-K1
T1 sequence (P46663 1-353): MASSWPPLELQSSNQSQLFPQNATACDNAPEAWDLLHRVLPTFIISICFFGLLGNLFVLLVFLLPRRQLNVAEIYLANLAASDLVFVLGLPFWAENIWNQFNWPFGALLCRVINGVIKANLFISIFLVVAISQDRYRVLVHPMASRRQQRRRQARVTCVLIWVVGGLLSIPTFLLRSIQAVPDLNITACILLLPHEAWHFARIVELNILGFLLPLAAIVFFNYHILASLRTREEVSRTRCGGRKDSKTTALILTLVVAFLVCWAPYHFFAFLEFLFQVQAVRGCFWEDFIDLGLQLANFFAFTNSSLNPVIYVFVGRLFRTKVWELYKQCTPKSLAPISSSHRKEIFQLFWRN
Description: Calcium flux assay (FLIPR) with recombinant CHO-K1 cells expressing human B1 receptor. Format: cell-based. The method, then:
The potency to inhibit the Bradykinin B1 receptors was determined for the example compounds of this invention in a cell-based fluorescent calcium-mobilisation assay. The assay measures the ability of example compounds to inhibit Bradykinin B1 receptor agonist-induced increase of intracellular free Ca^2+ in the cell line expressing B1 receptor. Specifically, calcium indicator-loaded cells are pre-incubated in the absence or presence of different concentrations of example compounds followed by the stimulation with a selective B1 receptor agonist peptide. The change of the intracellular Ca^2+ concentration is monitored with a fluorescent plate reader FLIPR (Molecular Devices).
Calcium Flux Assays (FLIPR) with Cells Expressing Bradykinin B1 Receptor Calcium Flux Assay (FLIPR) with Recombinant Cells for Bradykinin B1 Receptor Antagonist, Either in the Presence (hB1 IC50) or Absence (hB1 free IC50) of 0.1% Bovine Serum Albumin (BSA) in Assay Buffer
CHO-K1 cell line expressing human B1 receptor was purchased from Euroscreen (Gosselies, Belgium, with reference name hB1-D1). The cells were grown in Nutrient Mixture Ham's F12 (Sigma) containing 10% Foetal bovine serum (Sigma) and 400 μg/mL G418 (Sigma), 5 μg/mL puromycin (Sigma).
For the calcium flux assay, 80% confluent cells were detached from the culture vessels with Versene (Gibco), and seeded into 384-well plates (Cell binding Surface; Corning, N.Y.; #3683) at a density of 15,000 cells per well. Cells were seeded in a volume of 50 μL in medium without antibiotics and incubated overnight in a humidified atmosphere with 5% CO2 at 37° C. […] The calcium indicator loaded cells were incubated at 37° C. for 2 hrs. Extracellular dye was then removed and each well was filled with 45 μL of assay buffer. Cell plates were kept in dark until used. Example compounds were assayed at 8 concentrations in triplicate. Serial 10-fold dilutions in 100% DMSO were made at a 100-times higher concentration than the final concentration, and then diluted 1:10 in assay buffer. 5 μL of each diluted compound was added to the well of cell plates (yielding final concentration with 1% DMSO), and incubated for 30 min at 28° C. before the addition of B1 receptor agonist on the FLIPR instrument.
Agonist plates contained the agonist Lys-(Des-Arg)-Bradykinin (Bachem, Brackley) at 3.5×EC90 in assay buffer with 1% DMSO. The addition of agonist 20 μl per well to the assay plate was carried out on the FLIPR instrument while continuously monitoring Ca^2+-dependent fluorescence at 538 nm. A peptide antagonist Lys-(Des-Arg-Leu)-Bradykinin (Bachem, Brackley) at 20 μM was used to determine the full inhibition as control.
Peak fluorescence was used to determine the response to agonist obtained at each concentration of example compound by the following equation:
% Response=100*(RFU(example compound)−RFU(control)/(RFU(DMSO)−RFU(control)
Control=full inhibition by the peptide antagonist Lys-(Des-Arg-Leu)-Bradykinin at 20 μM
The response values were plotted against the logarithm of the compound concentrations. The compounds were tested in triplicates per plate and mean values were plotted in Excel XLfit to determine IC50 values, percentage of maximal inhibition and the Hill slopes.

[1] abbreviates: presence of 0.1% BSA in assay buffer, read-out: hB1 IC50.
The mark [2] stands for this setting: absence of 0.1% BSA in assay buffer, read-out: hB1 free IC50.

As usually defined, the pIC50 is the IC50 on a negative log10 scale, so that one unit is a factor of ten. Regarding `CCOc1ccc(-c2cc(C)c(NC(=O)C3CC3C3CCCCC3)cc2-c2nnn[nH]2)cc1OC` (racemic) [Example 73, 2-Cyclohexyl-N-[4′-ethoxy-3′-methoxy-5-methyl-2-(1H-tetrazol-5-yl)biphenyl-4-yl]cyclopro-panecarboxamide], the pIC50 under setting [1] is 6.65.

Turning to `O=C(Nc1ccc(-c2ccc(C(F)(F)F)nc2)c(-c2nnn[nH]2)c1)C1CC1C1CCCCC1` (racemic) [Example 30, 2-Cyclohexyl-N-{3-(1H-tetrazol-5-yl)-4-[6-(trifluoromethyl)pyridin-3-yl]phenyl}cyclopro-panecarboxamide], the negative-log IC50 (pIC50) is, setting by setting: under setting [2], 6.29; under setting [1], 5.48.

For `COc1ccc(-c2ccc(NC(=O)C3CC3c3ccccc3C)cc2-c2nnn[nH]2)cc1OC` (racemic) [Example 4, N-[3′,4′-dimethoxy-2-(1H-tetrazol-5-yl)biphenyl-4-yl]-2-(2-methylphenyl)cyclopro-panecarboxamide], the pIC50 under setting [2] is 7.92 and the pIC50 under setting [1] was 7.57.

As to `CCOc1cncc(-c2ccc(NC(=O)C3CC3c3ccc(Cl)cc3)cc2-c2nnn[nH]2)c1` (racemic) [Example 22, 2-(4-Chlorophenyl)-N-[4-(5-ethoxypyridin-3-yl)-3-(1H-tetrazol-5-yl)phenyl]cyclopro-panecarboxamide], the pIC50 under setting [1] was 6.22. In the case of `COCc1ccc(-c2ccc(NC(=O)C3CC3C3CCCCC3)cc2-c2nnn[nH]2)cc1C` (racemic) [Example 33, 2-cyclohexyl-N-[4′-(methoxymethyl)-3′-methyl-2-(1H-tetrazol-5-yl)biphenyl-4-yl]cyclo-propanecarboxamide], under setting [1], the pIC50 is 7.55.

For `COc1cncc(-c2cc(C)c(NC(=O)C3CC3c3cccc(C)c3)cc2-c2nnn[nH]2)c1` (racemic) [Example 68, N-[4-(5-Methoxypyridin-3-yl)-2-methyl-5-(1H-tetrazol-5-yl)phenyl]-2-(3-methylphenyl)cyclo-propanecarboxamide], under setting [1], the pIC50 is 6.47. For `COc1ccc(-c2cc(F)c(NC(=O)C3CC3c3cccc(C)c3)cc2-c2nnn[nH]2)cc1OC` (racemic) [Example 53, N-[5-Fluoro-3′,4′-dimethoxy-2-(1H-tetrazol-5-yl)biphenyl-4-yl]-2-(3-methylphenyl)cyclopro-panecarboxamide], the pIC50 under setting [1] is 7.80. In the case of `COc1cncc(-c2ccc(NC(=O)C3CC3c3ccc(Cl)cc3)cc2-c2nnn[nH]2)c1` (racemic) [Example 26, 2-(4-Chlorophenyl)-N-[4-(5-methoxypyridin-3-yl)-3-(1H-tetrazol-5-yl)phenyl]cyclopro-panecarboxamide], the pIC50 under setting [1] is 6.43. For `CC1(C(=O)Nc2ccc(-c3ccc(C(F)(F)F)nc3)c(-c3nnn[nH]3)c2)CC1c1ccccc1` (racemic) [Example 29, 1-Methyl-2-phenyl-N-{3-(1H-tetrazol-5-yl)-4-[6-(trifluoromethyl)pyridin-3-yl]phenyl}cyclopro-panecarboxamide], the pIC50 under setting [2] is 6.28.

In the case of `CCOc1ccc(-c2cc(C)c(NC(=O)C3CC3c3cccc(C)c3)cc2-c2nnn[nH]2)cn1` (racemic) [Example 63, N-[4-(6-Ethoxypyridin-3-yl)-2-methyl-5-(1H-tetrazol-5-yl)phenyl]-2-(3-methylphenyl)cyclo-propanecarboxamide], the pIC50 under setting [1] is 7.62. On to `COc1cncc(-c2cc(C)c(NC(=O)C3CC3C3CCCCC3)cc2-c2nnn[nH]2)c1` (racemic) [Example 69, 2-Cyclohexyl-N-[4-(5-methoxypyridin-3-yl)-2-methyl-5-(1H-tetrazol-5-yl)phenyl]cyclopropane-carboxamide], for which the pIC50 under setting [1] was 6.35.

Take `O=C(Nc1ccc(-c2ccc(C(F)(F)F)nc2)c(-c2nnn[nH]2)c1)C1CC1c1ccc(Cl)cc1` (racemic) [Example 79, 2-(4-chlorophenyl)-N-{3-(1H-tetrazol-5-yl)-4-[6-(trifluoro-methyl)pyridin-3-yl]phenyl}cyclopropane-carboxamide]: the pIC50 is 7.15 under setting [2] and 5.19 under setting [1]. Take `CCOc1ccc(-c2ccc(NC(=O)C3CC3C3CCCCC3)cc2-c2nnn[nH]2)cn1` (racemic) [Example 20, 2-Cyclohexyl-N-[4-(6-ethoxypyridin-3-yl)-3-(1H-tetrazol-5-yl)phenyl]cyclopro-panecarboxamide]: the pIC50 under setting [1] is 6.41. For the compound `CCOc1ccc(-c2cc(C)c(NC(=O)C3CC3C3CCCCC3)cc2-c2nnn[nH]2)cn1` (racemic) [Example 65, 2-Cyclohexyl-N-[4-(6-ethoxypyridin-3-yl)-2-methyl-5-(1H-tetrazol-5-yl)phenyl]cyclopropane-carboxamide], the negative logarithm of the IC50 (pIC50) under setting [1] was 6.61. For the compound `Cc1cccc(C2CC2C(=O)Nc2cc(-c3nnn[nH]3)c(-c3ccc(C(F)(F)F)nc3)cc2C)c1` (racemic) [Example 70, 2-(3-Methylphenyl)-N-{2-methyl-5-(1H-tetrazol-5-yl)-4-[6-(trifluoromethyl)pyridin-3-yl]phenyl}cyclopro-panecarboxamide], the pIC50 under setting [2] is 6.80 and the pIC50 under setting [1] is 7.07. With `CC(C)(C)c1cn(-c2ccc(NC(=O)C3CC3c3ccc(Cl)cc3)cc2-c2nnn[nH]2)cn1` (single isomer, unassigned) [Example 85, N-[4-(4-tert-butyl-1H-imidazol-1-yl)-3-(1H-tetrazol-5-yl)phenyl]-2-(4-chlorophenyl)cyclopropanecarboxamide], the pIC50 under setting [2] was 6.83.

With `Cn1cc(-c2ccc(NC(=O)C3CC3c3ccc(Cl)cc3)cc2-c2nnn[nH]2)cn1` (racemic) [Example 80, 2-(4-chlorophenyl)-N-[4-(1-methyl-1H-pyrazol-4-yl)-3-(1H-tetrazol-5-yl)phenyl]cyclopropane-carboxamide], the pIC50 reads like this: under setting [2], 5.88; under setting [1], 4.91. For `COc1ccc(-c2cc(C)c(NC(=O)C3CC3c3ccc(Cl)cc3)cc2-c2nnn[nH]2)cc1OC` (racemic) [Example 66, 2-(4-Chlorophenyl)-N-[3′,4′-dimethoxy-5-methyl-2-(1H-tetrazol-5-yl)biphenyl-4-yl]cyclopro-panecarboxamide], under setting [1], the pIC50 was 6.55. Consider `COc1ccc(-c2ccc(NC(=O)C3CC3c3ccccc3OC(F)(F)F)cc2-c2nnn[nH]2)cc1OC` (racemic) [Example 6, N-[3′,4′-dimethoxy-2-(1H-tetrazol-5-yl)biphenyl-4-yl]-2-[2-(trifluoromethoxy)phen-yl]cyclopropane-carboxamide], for which the pIC50 under setting [2] was 8.22 and the negative-log IC50 (pIC50) under setting [1] was 7.70. For the compound `COc1ccc(-c2cc(F)c(NC(=O)C3CC3c3ccc(Cl)cc3)cc2-c2nnn[nH]2)cc1` (racemic) [Example 58, 2-(4-Chlorophenyl)-N-[5-fluoro-4′-methoxy-2-(1H-tetrazol-5-yl)biphenyl-4-yl]cyclopropanecarbox-amide], the pIC50 under setting [1] was 6.87. On the same count and under the same terms, in the case of `COc1ccc(-c2ccc(NC(=O)C3CC3c3ccc(F)cc3)cc2-c2nnn[nH]2)cc1OC` (racemic) [Example 11, N-[3′,4′-dimethoxy-2-(1H-tetrazol-5-yl)biphenyl-4-yl]-2-(4-fluorophenyl)cyclopro-panecarboxamide] it was 7.02; in that of `COc1ccc(-c2cc(C)c(NC(=O)C3CC3C3CCCCC3)cc2-c2nnn[nH]2)cc1OC` (racemic) [Example 67, 2-Cyclohexyl-N-[3′,4′ dimethoxy-5-methyl-2-(1H-tetrazol-5-yl)biphenyl-4-yl]cyclopro-panecarboxamide], 6.37.
